Marks after values point to notes of the source that are not given here.
What was measured:
PME-1 = biological target: T1, PME-1 (Homo sapiens, UniProt Q9Y570); experiment: PP2A demethylation by PME-1, radioactive filter binding assay; type: biochemical
T1 construct: made in house
T1 sequence (Q9Y570 1-386): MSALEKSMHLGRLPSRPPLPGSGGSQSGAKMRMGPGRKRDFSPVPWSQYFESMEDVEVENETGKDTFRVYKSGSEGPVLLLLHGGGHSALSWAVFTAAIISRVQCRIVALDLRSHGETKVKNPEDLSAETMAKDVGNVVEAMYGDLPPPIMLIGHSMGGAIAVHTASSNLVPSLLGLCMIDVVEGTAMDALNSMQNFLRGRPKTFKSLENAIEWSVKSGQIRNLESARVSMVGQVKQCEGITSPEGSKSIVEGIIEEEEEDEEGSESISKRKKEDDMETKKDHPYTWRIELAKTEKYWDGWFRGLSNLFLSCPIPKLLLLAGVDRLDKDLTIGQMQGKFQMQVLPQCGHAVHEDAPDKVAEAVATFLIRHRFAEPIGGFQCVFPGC
Experimental: Compositions were created using the extraction methods as generally described in Example 1. These compositions were assayed for their ability to preserve the methylation status of PP2A AC dimer in the presence of protein phosphatase methylesterase-1 (PME-1), using a radioactive filter binding assay.
PP2A-AC dimer was prepared as previously described in Tolstykh T, Lee J, Vafai S, Stock J B. Carboxyl methylation regulates phosphoprotein phosphatase 2A by controlling the association of regulatory B subunits. EMBO J. 2000; 19(20:5682-5691. Additional purification was performed with a HiPrep™ 16/60 Sephacryl® S100 HR in a buffer composed of 50 mM MOPS pH 7.2, 1.0 mM EDTA, 1.0 mM dithiothreitol (DTT), and 0.50 μg/ml each of aprotinin, leupeptin and pepstatin. Leucine carboxyl methytransferase-1 (LCMT-1) and Protein phosphatase methylesterase-1 (PME-1) were prepared using the methods as previously described Xing Y, Li Z, Chen Y, Stock J B, Jeffrey P D, Shi Y. Structural mechanism of demethylation and inactivation of protein phosphatase 2A. Cell. 2008; 133(I):154-163.
[3H]-labeled methylated PP2A AC dirtier was prepared by incubating PP2A, LCMT1 and [3H]-SAM (PerkinElmer; Waltham, Mass.) in 50 mM MOPS-Na (pH 7.2), 5 mM MgCl2, and 1 mM DTT at room temperature for 1 hour. Demethylation of PP2A by PME-1 was measured using the radioactive filter binding assay format. 20 nM PME-1 was incubated for 15 minutes with extract or compound, then 20 nM of [3H]-labeled methylated PP2A AC dimer was added. Reactions were run at room temperature for 30 minutes and then applied to a 96-well filter plate (Millipore Co.) containing 30% TCA where proteins were precipitated and separated from the excess of [3H]-SAM by washing with 70% ethanol. [3H]-incorporation was measured using TopCount NXT scintillation counter (PerkinEimer; Waltham, MA). IC50 values were generated from dose-response curves using a four-parameter logistic curve fit using SigmaPlot software (Systat Software, San Jose, CA).

[1] = test system: Cutibacterium acnes (ATCC® 6919™); experiment: Minimum inhibitory concentration, growth of C. acnes; type: cell-based; details: for MIC Cutibacterium acnes (ATCC ® 6919 ™): 90% inhibition of growth, anaerobic, 72 hours, Table 6; for MIC Cutibacterium acnes (ATCC ® 6919): Table 14
Experimental: (§1) The inhibition of growth of Cutibacterium acnes and Staphylococcus aureus bacteria was measured according to the methods described in Nakatsuji et al., J Invest Dermatol, 2009, 129: 2480-2488; Traub and Leonhard, Chemotherapy, 1994; 40(6):374-383. In summary, the strain ATCC® 6919™ of C. acnes (American Type Culture Collection, Manassas, VA) was cultured on Reinforced Clostridium agar (BD 218081), under anaerobic conditions using Gas-Pak (B D, Sparks, MD) at 37° C. ATCC® 29213™ strain of S. aureus was cultured on tryptic soy agar (BD 211825), under aerobic conditions at 37° C. A single colony was inoculated in broth medium and cultured at 37° C. In addition to various positive controls, both the Final Product and the First Stage Product of the extraction process described in Example 1 were tested as described below. Test material was dissolved in 100% (v/v) DMSO. Doxycycline was dissolved in 100% (v/v) water. Samples of each test material and a solution of doxycycline were then each incubated with an inoculum of bacteria at a concentration of 1×10^6 CFU per mL, in broth medium in a 96-well microplate (0.1 mL per well) under aerobic conditions for 24 hours (S. aureus) or anaerobic conditions for 72 hours (C. acnes). Samples of each material were tested at final concentrations per well up to 4 mg/mL. A control well received only 5% (v/v) of DMSO or water. After 24-72 hours incubation, the bacteria cultures in the 96-well microplate were mixed well and then absorbance readings at 600 nm were taken to determine bacterial growth.

[2] = test system: Staphylococcus aureus (ATCC® 29213™); experiment: Minimum inhibitory concentration, growth of S. aureus; type: cell-based; details: for MIC Staphylococcus aureus (ATCC ® 29213 ™): 90% inhibition of growth, aerobic, 24 hours, Table 6; for MIC Staphylococcus aureus (ATCC ® 29213): Table 14
Experimental: as §1

[3] = test system: human pre-adipocyte cells; experiment: Lipolysis assay, glycerol release; type: cell-based; details: 100 μM, 8 hours
From the text: Lipolysis is the process in which triglycerides (TG) are hydrolyzed into glycerol and free fatty acids. This process releases free fatty acids (FFA) into the bloodstream where they may be either re-esterified by the adipocyte or travel to other tissues and exert other effects throughout the body. The purpose of this study was to evaluate the lipolysis via measure of the glycerol molecule released in lipolysis process. Here, we evaluated the potential capacity of the chia seed extract composition of Example 1 in cultured human pre-adipocyte cells. Cells were seeded in medium and incubated for 7 days. Neat solutions of the enriched free acid chia seed extract composition of Example 1 were prepared formulated in methanol. Cells were pre-treated for 8 hours with or without test material in media.
A Lipolysis Assay Kit (Cat. No. Lip-1) was obtained from Zen-Bio, Inc. (Research Triangle, NC) and used to determine glycerol levels (μM) based on the methodology described below. Glycerol released to the medium is phosphorylated by […] (ATP) forming glycerol-1-phosphate (G-1-P) and adenosine-5′-diphosphate (ADP) in the reaction catalyzed by glycerol kinase. G-1-P is then oxidized by glycerol phosphate oxidase to dihydroxyacetone phosphate (DAP) and hydrogen peroxide. […] The increase in absorbance at 540 nm is directly proportional to glycerol concentration of the sample. […]

[4] = Clinical trial, skin moisturization by Corneometer; type: in vivo, human; details: lower leg
Experimental: A single-blind, single-center clinical trial was conducted with 6 healthy volunteers of either sex to evaluate the moisturization efficacy of a moisturizing cream (formulated as shown below in Table 8) containing the composition prepared using the process of Example 9, vehicle (i.e., the formulation of Table 8 minus the active ingredient-i.e., the chia seed composition), a negative control (untreated), and two positive controls (petroleum jelly and glycerin). The objective of this study was to evaluate the moisturization efficacy (as measured by Corneometer®) and to evaluate the relative degree of improvement to skin barrier functionality of two test articles as measured by Trans Epidermal Water Loss (TEWL) assessments when tested in 16 healthy subjects. See, e.g., Johan du […] et al., International Guidelines for The In Vivo Assessment Of Skin Properties In Noel-Clinical Settings: Part 2. Transepidermal Water Loss and Skin Hydration, Skin Res. Technol. 19(3), 265-278 (2013); C. W. Blichmann and J. Serup, Assessment of Skin Moisture. Measurement of Electrical Conductance: Capacitance and Transepidermal Water Loss, Acta Derm. Venereol. 68(4): 284-290 (1988). On day -3 of the study, subjects were given a bland soap product (e.g., Simple® Soap) to use on their lower legs for the three days prior to the active phase. They were instructed not to use any other treatment products on their lower legs for the next 3 days (the “Washout Phase”). These products included moisturizing foam baths, shower gels or soaps, lotions and creams, and depilatory products. As part of the pre-treatment assessment, subjects sat resting for a period of at least 30 minutes in a controlled environment at a temperature of 22° C.±2° C. and at a relative humidity of 45%±5%. Following the rest period, their lower legs were marked with a total of four 5 cm×5 cm squares. Moisturization measurements to study the humectant properties of the test articles were performed using the Corneometer® CM825 (Courage and Khazaka, Germany). This instrument relies on the dielectric constant, a physical property of water, which is relatively high and as such will affect the capacitance of a capacitor. Any change in the dielectric constant due to skin moisture variations would alter the capacitance of the precision capacitor in the instrument. These variations were detected electronically and converted into a value by the Corneometer®. A 15-minute warm-up period was allowed before using the Corneometer®. Following assessments of skin hydration by a Corneometer®, a single application of the test articles (i.e., the chia seed formulation and vehicle alone) was made to the lower leg. Further Corneometer® assessments were then performed at 2, 8, and 24-hours following test article application. […]

| SMILES | MIC Cutibacterium acnes (ATCC ® 6919 ™) [1] | MIC Cutibacterium acnes (ATCC ® 6919) [1] | MIC Staphylococcus aureus (ATCC ® 29213 ™) [2] | MIC Staphylococcus aureus (ATCC ® 29213) [2] | other results |
| --- | --- | --- | --- | --- | --- |
| CC/C=C\C/C=C\C/C=C\CCCCCCCC(=O)O [ALA, cis,cis,cis-9,12,15-octacedatriencoic acid] | – | – | – | – | [ALA] necessary to obtain 50% PP2A inhibition (PME-1; [LA]=0 μg/mL): > 8 µg/mL; [ALA] necessary to obtain 50% PP2A inhibition (PME-1; [LA]=0.5 μg/mL): > 4 µg/mL |
| O=C(OOC(=O)c1ccccc1)c1ccccc1 [Benzoyl peroxide] | 500 μg\mL | 500 μg\mL | 500 μg\mL | 500 μg\mL | – |
| C[C@H]1c2cccc(O)c2C(=O)C2=C(O)[C@]3(O)C(=O)C(C(N)=O)=C(O)[C@@H](N(C)C)[C@@H]3[C@@H](O)[C@@H]21 [Doxycycline] | 0.6 μg\mL | 0.6 μg\mL | 0.2 μg\mL | 0.2 μg\mL | – |
| CC(C)Cn1c(=O)n(C)c(=O)c2[nH]cnc21 [IBMX, 3-isobutyl-1-methylxanthine] | – | – | – | – | Glycerol Levels, Avg [3]: 8.8* (p < 0.01 μM; Glycerol Levels, Fold Improvement [3]: 6.4 |
| CCCCC/C=C\C/C=C\CCCCCCCC(=O)O [LA, cis,cis-9,12-octadecadienoic acid] | – | – | – | – | [LA] at which 50% PP2A inhibition is achieved (PME-1; regardless of [ALA]): ≥ 1 µg/mL |
| OCC(O)CO [Positive Control (glycerine), glycerine] | – | – | – | – | Mean Corneometer ® Values ([4]; 0 hours (before application)): 22.7; Mean Corneometer ® Values ([4]; 2 hours after single application): 127.1; Mean Corneometer ® Values ([4]; 8 hours after single application): 106.8; Mean Corneometer ® Values ([4]; 24 hours after single application): 82.3 |
| O=C(O)c1ccccc1O [Salicylic Acid] | 1000 μg\mL | 500 μg\mL | 2000 μg\mL | 2000 μg\mL | – |

— patent US12599642B2, “Compositions derived from Salvia hispanica seeds” (Signum Biosciences, priority 2020, dated 2026)
